How the values were obtained:
Test in all cases: relative viability (nuclei count vs DMSO), 5 days (fraction); higher = more cells survive
[1] = tested on: NCI-H1437
Method in brief: (§1)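 Medians of duplicate plates are given as relative viability. That measure is the nuclei count in treated wells divided by the count in vehicle wells. Counts were taken on 4× images of lung cancer cell lines in 1536-well plates, 5 days after pin-tool dosing the day after seeding with one drug alone or a fixed anchor-drug dose plus five library-drug doses (not always all listed) in √10 steps.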

[2] = tested on: H3255
Method in brief: as §1

[3] = tested on: NCI-H441
Method in brief: as §1

[4] = tested on: LCLC-103H
Method in brief: as §1

[5] = tested on: NCI-H1355
Method in brief: as §1

[6] = tested on: ABC-1
Method in brief: as §1

[7] = tested on: NCI-H2228
Method in brief: as §1

[8] = tested on: NCI-H1651
Method in brief: as §1

[9] = tested on: LU99A
Method in brief: as §1

[10] = tested on: NCI-H322M
Method in brief: as §1

[11] = tested on: HCC-827
Method in brief: as §1

[12] = tested on: CAL-12T
Method in brief: as §1

[13] = tested on: 201T
Method in brief: as §1

[14] = tested on: UMC-11
Method in brief: as §1

[15] = tested on: NCI-H2085
Method in brief: as §1

[16] = tested on: NCI-H1792
Method in brief: as §1

[17] = tested on: NCI-H23
Method in brief: as §1

[18] = tested on: NCI-H2405
Method in brief: as §1

[19] = tested on: HCC-15
Method in brief: as §1

[20] = tested on: RERF-LC-KJ
Method in brief: as §1

Question: Which relative viability ([1]; first compound 0.2 µM) does the source give for `COCC1(CO)C(=O)C2CCN1CC2` (configuration not stated) [PRIMA-1MET] + CC(C)C[C@H](NC(=O)[C@H](Cc1ccccc1)NC(=O)c1cnccn1)B(O)O [Bortezomib] (partner 0.002 µM) here?
Answer: 0.573

Question: And the relative viability ([1]; first compound 0.6325 µM)?
Answer: 0.403

Question: And the relative viability ([1]; first compound 2 µM)?
Answer: 0.538

Question: What about the relative viability ([1]; first compound 6.325 µM) of the same molecule?
Answer: 0.594

Question: What about the relative viability ([1]; first compound 20 µM) of the same molecule?
Answer: 0.432

Question: What about the relative viability ([2]; first compound 0.2 µM) of the same molecule?
Answer: 0.814

Question: What about the relative viability ([2]; first compound 0.6325 µM) of the same molecule?
Answer: 0.461

Question: What about the relative viability ([2]; first compound 2 µM) of the same molecule?
Answer: 0.771

Question: What about the relative viability ([2]; first compound 6.325 µM) of the same molecule?
Answer: 0.815

Question: And the relative viability ([2]; first compound 20 µM)?
Answer: 0.69

Question: And the relative viability ([3]; first compound 0.2 µM)?
Answer: 0.387

Question: What about the relative viability ([3]; first compound 0.6325 µM) of the same molecule?
Answer: 0.407

Question: And the relative viability ([3]; first compound 2 µM)?
Answer: 0.347

Question: What about the relative viability ([3]; first compound 6.325 µM) of the same molecule?
Answer: 0.404

Question: What about the relative viability ([3]; first compound 20 µM) of the same molecule?
Answer: 0.107

Question: And the relative viability ([4]; first compound 0.2 µM)?
Answer: 1.35

Question: What about the relative viability ([4]; first compound 0.6325 µM) of the same molecule?
Answer: 1.03

Question: And the relative viability ([4]; first compound 2 µM)?
Answer: 1.04

Question: What about the relative viability ([4]; first compound 6.325 µM) of the same molecule?
Answer: 0.934

Question: What about the relative viability ([4]; first compound 20 µM) of the same molecule?
Answer: 1

Question: And the relative viability ([5]; first compound 0.2 µM)?
Answer: 1.26

Question: And the relative viability ([5]; first compound 0.6325 µM)?
Answer: 1.12

Question: What about the relative viability ([5]; first compound 2 µM) of the same molecule?
Answer: 1.21

Question: And the relative viability ([5]; first compound 6.325 µM)?
Answer: 1.31

Question: And the relative viability ([5]; first compound 20 µM)?
Answer: 1.18

Question: And the relative viability ([6]; first compound 0.2 µM)?
Answer: 0.297

Question: And the relative viability ([6]; first compound 0.6325 µM)?
Answer: 0.278

Question: What about the relative viability ([6]; first compound 2 µM) of the same molecule?
Answer: 0.256

Question: And the relative viability ([6]; first compound 6.325 µM)?
Answer: 0.287

Question: What about the relative viability ([6]; first compound 20 µM) of the same molecule?
Answer: 0.276

Question: What about the relative viability ([7]; first compound 0.2 µM) of the same molecule?
Answer: 1.1

Question: What about the relative viability ([7]; first compound 0.6325 µM) of the same molecule?
Answer: 0.957

Question: What about the relative viability ([7]; first compound 2 µM) of the same molecule?
Answer: 1.09

Question: What about the relative viability ([7]; first compound 6.325 µM) of the same molecule?
Answer: 1.04

Question: What about the relative viability ([7]; first compound 20 µM) of the same molecule?
Answer: 0.0398

Question: And the relative viability ([8]; first compound 0.2 µM)?
Answer: 0.929

Question: What about the relative viability ([8]; first compound 0.6325 µM) of the same molecule?
Answer: 0.847

Question: And the relative viability ([8]; first compound 2 µM)?
Answer: 0.874

Question: What about the relative viability ([8]; first compound 6.325 µM) of the same molecule?
Answer: 0.975

Question: And the relative viability ([8]; first compound 20 µM)?
Answer: 0.844

Question: And the relative viability ([9]; first compound 0.2 µM)?
Answer: 1.09

Question: And the relative viability ([9]; first compound 0.6325 µM)?
Answer: 0.957

Question: And the relative viability ([9]; first compound 2 µM)?
Answer: 1.15

Question: And the relative viability ([9]; first compound 6.325 µM)?
Answer: 0.892

Question: And the relative viability ([9]; first compound 20 µM)?
Answer: 0.103

Question: What about the relative viability ([10]; first compound 0.2 µM) of the same molecule?
Answer: 1.3

Question: What about the relative viability ([10]; first compound 6.325 µM) of the same molecule?
Answer: 1.29

Question: And the relative viability ([10]; first compound 20 µM)?
Answer: 1.06

Question: What about the relative viability ([11]; first compound 0.2 µM) of the same molecule?
Answer: 1.13

Question: What about the relative viability ([11]; first compound 0.6325 µM) of the same molecule?
Answer: 1.01

Question: What about the relative viability ([11]; first compound 2 µM) of the same molecule?
Answer: 0.971

Question: And the relative viability ([11]; first compound 6.325 µM)?
Answer: 1.1

Question: What about the relative viability ([11]; first compound 20 µM) of the same molecule?
Answer: 0.956

Question: What about the relative viability ([12]; first compound 0.2 µM) of the same molecule?
Answer: 0.862

Question: And the relative viability ([12]; first compound 0.6325 µM)?
Answer: 0.947

Question: And the relative viability ([12]; first compound 2 µM)?
Answer: 1.15

Question: What about the relative viability ([12]; first compound 6.325 µM) of the same molecule?
Answer: 0.946

Question: What about the relative viability ([12]; first compound 20 µM) of the same molecule?
Answer: 0.245

Question: What about the relative viability ([13]; first compound 0.2 µM) of the same molecule?
Answer: 1.18

Question: What about the relative viability ([13]; first compound 0.6325 µM) of the same molecule?
Answer: 1.07

Question: And the relative viability ([13]; first compound 2 µM)?
Answer: 1.07

Question: And the relative viability ([13]; first compound 6.325 µM)?
Answer: 1.15

Question: What about the relative viability ([13]; first compound 20 µM) of the same molecule?
Answer: 1.08

Question: What about the relative viability ([14]; first compound 0.2 µM) of the same molecule?
Answer: 0.778

Question: And the relative viability ([14]; first compound 0.6325 µM)?
Answer: 0.407

Question: What about the relative viability ([14]; first compound 2 µM) of the same molecule?
Answer: 0.666

Question: What about the relative viability ([14]; first compound 6.325 µM) of the same molecule?
Answer: 0.771

Question: What about the relative viability ([14]; first compound 20 µM) of the same molecule?
Answer: 0.777

Question: And the relative viability ([15]; first compound 0.2 µM)?
Answer: 1.08

Question: What about the relative viability ([15]; first compound 0.6325 µM) of the same molecule?
Answer: 0.978

Question: And the relative viability ([15]; first compound 2 µM)?
Answer: 0.856

Question: And the relative viability ([15]; first compound 6.325 µM)?
Answer: 0.609

Question: What about the relative viability ([15]; first compound 20 µM) of the same molecule?
Answer: 0.392

Question: What about the relative viability ([16]; first compound 0.2 µM) of the same molecule?
Answer: 0.959

Question: What about the relative viability ([16]; first compound 0.6325 µM) of the same molecule?
Answer: 0.851

Question: And the relative viability ([16]; first compound 2 µM)?
Answer: 0.937

Question: What about the relative viability ([16]; first compound 6.325 µM) of the same molecule?
Answer: 1

Question: What about the relative viability ([16]; first compound 20 µM) of the same molecule?
Answer: 0.939

Question: And the relative viability ([17]; first compound 0.2 µM)?
Answer: 0.966

Question: And the relative viability ([17]; first compound 0.6325 µM)?
Answer: 0.724

Question: What about the relative viability ([17]; first compound 2 µM) of the same molecule?
Answer: 0.944

Question: What about the relative viability ([17]; first compound 6.325 µM) of the same molecule?
Answer: 1.05

Question: And the relative viability ([17]; first compound 20 µM)?
Answer: 0.116

Question: What about the relative viability ([18]; first compound 0.2 µM) of the same molecule?
Answer: 0.716

Question: And the relative viability ([18]; first compound 0.6325 µM)?
Answer: 0.786

Question: And the relative viability ([18]; first compound 6.325 µM)?
Answer: 0.92

Question: What about the relative viability ([18]; first compound 20 µM) of the same molecule?
Answer: 0.952

Question: What about the relative viability ([19]; first compound 0.2 µM) of the same molecule?
Answer: 1.02

Question: And the relative viability ([19]; first compound 0.6325 µM)?
Answer: 0.902

Question: What about the relative viability ([19]; first compound 2 µM) of the same molecule?
Answer: 1.12

Question: What about the relative viability ([19]; first compound 6.325 µM) of the same molecule?
Answer: 0.988

Question: What about the relative viability ([19]; first compound 20 µM) of the same molecule?
Answer: 0.583

Question: And the relative viability ([20]; first compound 0.2 µM)?
Answer: 1.35

Question: What about the relative viability ([20]; first compound 0.6325 µM) of the same molecule?
Answer: 1.04

Question: What about the relative viability ([20]; first compound 2 µM) of the same molecule?
Answer: 1.13

Question: What about the relative viability ([20]; first compound 6.325 µM) of the same molecule?
Answer: 1.15

Question: What about the relative viability ([20]; first compound 20 µM) of the same molecule?
Answer: 1.04

Source: the supplement of paper PMC10307832
